Several values for one entry are separate records, joined by “and”; a condition that tells them apart may be missing. Identical values can stand only once. Counter-ions that a name gives are not always drawn. Like-named read-outs stand apart in the source and are kept apart here.
Columns and labels:
[1] = tested on: human liver microsomes; assay: 4-MU glucuronidation inhibition assay in human liver microsomes; type: in vitro ADME; details: comparison of IC50 values
[2] = tested on: UGT1A1; details: except at highly extraordinary concentrations; cited from earlier work
[3] = tested on: human UGT2B7; details: read-out: Km for buprenorphine glucuronidation by human UGT2B7 isoform; cited from earlier work
[4] = tested on: rat liver microsomes; assay: 4-MU glucuronidation inhibition assay in rat liver microsomes; type: in vitro ADME
[5] = tested on: human UGT2B7; details: read-out: Km for 4-MU glucuronidation by human UGT2B7 isoform; cited from earlier work
[6] = target: T1, recombinant human UGT1A1 (Homo sapiens, UniProt P22309); assay: 4-MU glucuronidation inhibition assay with recombinant human UGT1A1 isoform; type: in vitro ADME
T1 sequence (P22309 26-533): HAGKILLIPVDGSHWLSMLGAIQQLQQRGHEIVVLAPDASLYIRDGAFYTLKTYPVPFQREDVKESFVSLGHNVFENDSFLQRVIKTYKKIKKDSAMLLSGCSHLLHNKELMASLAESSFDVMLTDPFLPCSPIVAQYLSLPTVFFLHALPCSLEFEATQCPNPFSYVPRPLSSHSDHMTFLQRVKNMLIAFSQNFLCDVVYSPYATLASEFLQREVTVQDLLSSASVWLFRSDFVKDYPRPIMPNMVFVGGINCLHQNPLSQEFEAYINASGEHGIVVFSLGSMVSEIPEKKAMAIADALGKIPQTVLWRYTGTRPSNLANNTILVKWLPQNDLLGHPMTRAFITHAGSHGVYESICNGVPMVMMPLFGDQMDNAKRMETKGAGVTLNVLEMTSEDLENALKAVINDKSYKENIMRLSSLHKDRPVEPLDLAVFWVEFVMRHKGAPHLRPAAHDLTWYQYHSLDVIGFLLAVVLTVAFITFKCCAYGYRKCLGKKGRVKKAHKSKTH

[7] = tested on: UGT (4-MU glucuronidation); assay: 4-MU glucuronidation inhibition assay in rat liver microsomes; type: in vitro ADME; details: rat, rat liver microsomes, pH 7.4, probe 4-methylumbelliferone (4-MU), 100 μM
[8] = tested on: human UGT1A1; details: previous report; cited from earlier work
[9] = tested on: human UGT2B15; details: read-out: estimated IC50, human UGT2B15; previous study; cited from earlier work
[10] = target: T2, recombinant human UGT2B7 (Homo sapiens, UniProt P16662); assay: 4-MU glucuronidation inhibition assay with recombinant human UGT2B7 isoform; type: in vitro ADME
T2 sequence (P16662 24-529): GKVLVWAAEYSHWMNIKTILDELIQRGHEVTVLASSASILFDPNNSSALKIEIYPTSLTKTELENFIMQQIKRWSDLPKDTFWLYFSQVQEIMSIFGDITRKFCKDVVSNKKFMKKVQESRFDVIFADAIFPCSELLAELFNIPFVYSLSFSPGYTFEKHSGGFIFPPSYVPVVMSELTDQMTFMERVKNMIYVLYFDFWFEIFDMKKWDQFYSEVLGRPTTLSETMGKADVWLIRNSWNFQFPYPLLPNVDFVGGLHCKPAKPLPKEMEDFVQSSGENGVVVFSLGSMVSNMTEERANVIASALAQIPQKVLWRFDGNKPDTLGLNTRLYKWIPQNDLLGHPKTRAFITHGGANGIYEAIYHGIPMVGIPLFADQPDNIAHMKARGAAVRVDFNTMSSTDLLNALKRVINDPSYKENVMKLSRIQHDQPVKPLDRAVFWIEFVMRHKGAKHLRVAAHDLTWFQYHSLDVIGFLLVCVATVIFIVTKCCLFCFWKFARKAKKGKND

[11] = cited from earlier work
[12] = tested on: human UGT2B7; details: read-out: estimated IC50, human UGT2B7; previous study; cited from earlier work
[13] = tested on: UGT (s); details: cited from earlier work

buprenorphine hydrochloride
potency relative to diclofenac (more potent) [1]: about 13 orders of magnitude | inhibitory effect on bilirubin glucuronidation catalyzed by UGT1A1 [2]: no significant inhibitory effect | Km [3]: 20.9 µM | potency relative to diclofenac ([4]; rat liver microsomes, comparison of IC50 values): about three orders of magnitude less potent than diclofenac | IC50 ([4]; read-out: IC50 on 4-MUG formation, rat liver microsomes): 73.2 ± 1.63 µM

Cc1cc(=O)oc2cc(O)ccc12 [4-MU, 4-methylumbelliferone]
Km [5]: 335 µM

O=C(O)Cc1ccccc1Nc1c(Cl)cccc1Cl [Diclofenac, diclofenac]
IC50 [6]: 2.34 ± 1.28 µM | IC50 at 30 min [7]: 21.1 ± 1.32 µM

CNC1(c2ccccc2Cl)CCCCC1=O (centres unmarked) [Ketamine, Ketamine hydrochloride]
inhibitory effect on 4-MU glucuronidation in human UGT1A1 isoform [8]: weak inhibitory effect | IC50 [9]: 95 µM | IC50 [6]: > 1000 µM | IC50 at 30 min [7]: 6.21 ± 1.51 µM | IC50 [10]: 27.3 ± 1.18 µM | ketamine concentration after low-dose administration ([11]; 0.125–0.250 mg/kg intravenous): > 0.42 μM and > 100 μg/l | mean plasma concentration during steady-state anesthesia ([11]; induction 2 mg/kg, maintenance approx. 40 μg/kg/min): 9.3 µM | IC50 [12]: 55 µM | manner of inhibition of morphine-3-glucuronide formation [13]: non-competitive

— publication PMC4660513 (Pharmacognosy Research, 2015)
